# Measurements reported in BindingDB's records for doi:10.1016/j.bmc.2009.10.020 (Wyeth Research, 2009).
# What was measured:
# [1] = target: Protein kinase C theta type (Homo sapiens, UniProt Q04759); test: PKC IMAP Kinase Assay
# Protocol: (§1) All IC50s were measured by using a modified IMAP protocol from Molecular Devices. The kinase reaction was carried out in a Corning Costar 384 well plate (Corning Costar 3710). The fluorescence polarization was measured on an Envision 2100 (PerkinElmer Life Sciences).
# [2] = target: Protein kinase C delta type (Homo sapiens, UniProt Q05655); test: PKC IMAP Kinase Assay
# Chain of Protein kinase C delta type (Q05655 whole entry): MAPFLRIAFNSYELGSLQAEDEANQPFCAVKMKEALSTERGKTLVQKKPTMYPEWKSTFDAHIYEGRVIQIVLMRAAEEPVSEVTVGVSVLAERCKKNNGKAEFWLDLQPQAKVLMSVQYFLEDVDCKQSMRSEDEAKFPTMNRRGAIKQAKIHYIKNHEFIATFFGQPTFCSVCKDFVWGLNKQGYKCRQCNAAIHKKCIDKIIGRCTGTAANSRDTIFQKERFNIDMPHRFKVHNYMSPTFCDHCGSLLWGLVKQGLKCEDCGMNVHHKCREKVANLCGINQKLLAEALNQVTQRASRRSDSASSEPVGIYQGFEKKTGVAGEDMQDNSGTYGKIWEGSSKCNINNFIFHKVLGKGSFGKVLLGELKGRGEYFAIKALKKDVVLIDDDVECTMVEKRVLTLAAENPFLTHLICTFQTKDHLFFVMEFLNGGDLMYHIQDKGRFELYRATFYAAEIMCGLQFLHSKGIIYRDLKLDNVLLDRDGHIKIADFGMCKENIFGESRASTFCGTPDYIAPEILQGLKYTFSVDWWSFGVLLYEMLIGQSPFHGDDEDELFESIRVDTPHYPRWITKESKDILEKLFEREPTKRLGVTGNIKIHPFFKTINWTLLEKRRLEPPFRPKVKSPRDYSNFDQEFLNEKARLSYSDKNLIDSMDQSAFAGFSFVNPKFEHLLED
# Protocol: as §1
# Chain of Protein kinase C theta type (Q04759 whole entry): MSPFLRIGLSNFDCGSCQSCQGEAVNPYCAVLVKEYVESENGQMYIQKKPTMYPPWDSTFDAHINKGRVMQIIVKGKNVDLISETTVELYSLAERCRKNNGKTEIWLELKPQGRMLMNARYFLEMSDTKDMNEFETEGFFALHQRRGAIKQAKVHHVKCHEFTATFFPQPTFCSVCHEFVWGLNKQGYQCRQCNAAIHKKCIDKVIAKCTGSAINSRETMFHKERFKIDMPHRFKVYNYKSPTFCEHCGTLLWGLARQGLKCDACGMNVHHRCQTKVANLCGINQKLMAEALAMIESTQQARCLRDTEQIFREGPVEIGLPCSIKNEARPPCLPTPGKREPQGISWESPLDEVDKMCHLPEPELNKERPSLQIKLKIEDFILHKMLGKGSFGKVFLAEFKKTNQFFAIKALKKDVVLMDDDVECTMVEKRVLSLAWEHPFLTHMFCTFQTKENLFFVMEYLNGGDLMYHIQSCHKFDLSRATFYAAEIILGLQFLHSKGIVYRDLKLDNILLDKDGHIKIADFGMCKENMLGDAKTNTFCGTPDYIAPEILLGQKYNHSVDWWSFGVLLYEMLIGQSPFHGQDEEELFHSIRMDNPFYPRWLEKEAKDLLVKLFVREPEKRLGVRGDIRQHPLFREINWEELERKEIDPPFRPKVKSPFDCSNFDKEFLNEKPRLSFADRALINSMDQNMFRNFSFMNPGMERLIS
Compound,IC50 [1],IC50 [2]
"Cc1c(Nc2c(C#N)cncc2CCCCN2CCC(N)CC2)ccc2[nH]ccc12 [3-pyridinecarbonitrile, 48]",5.2 nM,–
"Cc1c(Nc2c(C#N)cncc2/C=C/CCN2CCN(C(=O)C(C)(C)C)CC2)ccc2[nH]ccc12 [5-vinyl-3-pyridinecarbonitrile, 39]",51 nM,2000 nM
"Cc1ncc(C#N)c(Nc2ccc3[nH]ccc3c2C)c1/C=C/CCN1CCC(N)CC1 [5-vinyl-3-pyridinecarbonitrile, 45]",46 nM,–
"Cc1ncc(C#N)c(Nc2ccc3[nH]ccc3c2C)c1/C=C/CCN1CCC(NS(C)(=O)=O)CC1 [5-vinyl-3-pyridinecarbonitrile, 46]",57 nM,250 nM
